Reference: patent EP4603105A1, “PHARMACEUTICAL COMPOSITION CONTAINING CYCLIC COMPOUND HAVING SELECTIVE KRAS INHIBITORY EFFECT AGAINST HRAS AND NRAS” (CHUGAI SEIYAKU KABUSHIKI KAISHA, priority 2022, dated 2024)

Columns and labels:
[1] = biological target: HRAS wild-type protein (Homo sapiens, UniProt P01112); test: Binding to HRAS by surface plasmon resonance (SPR), KD and KD ratio to KRAS; details: ratio of KD for HRAS wild-type protein to KD for KRAS
Outline: (§1)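 Biotinylated GDP-bound RAS was captured at about 100–300 RU. Running buffer: HBS pH 7.4, 10 mM MgCl2, 10 µM GDP, 1 mM DTT, 0.01% Tween 20, 4% DMSO.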

[2] = test system: human lung cancer strain NCI-H441; format: cell-based
Outline: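 Step one: dispense the test compound in serial DMSO dilutions. Step three: add the reagent and measure […].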

[3] = biological target: GDP-bound NRAS wild-type protein (Homo sapiens, UniProt P01111); test: Binding to NRAS by surface plasmon resonance (SPR), KD and KD ratio to KRAS; details: ratio of KD for GDP-bound NRAS wild-type protein to KD for KRAS
Outline: as §1

Chain of HRAS wild-type protein (P01112 whole entry): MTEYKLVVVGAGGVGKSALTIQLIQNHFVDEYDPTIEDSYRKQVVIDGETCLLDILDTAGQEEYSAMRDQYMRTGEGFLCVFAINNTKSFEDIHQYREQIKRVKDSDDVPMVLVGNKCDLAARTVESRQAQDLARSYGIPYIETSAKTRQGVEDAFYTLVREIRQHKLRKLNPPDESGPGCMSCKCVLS
Chain of GDP-bound NRAS wild-type protein (P01111 whole entry): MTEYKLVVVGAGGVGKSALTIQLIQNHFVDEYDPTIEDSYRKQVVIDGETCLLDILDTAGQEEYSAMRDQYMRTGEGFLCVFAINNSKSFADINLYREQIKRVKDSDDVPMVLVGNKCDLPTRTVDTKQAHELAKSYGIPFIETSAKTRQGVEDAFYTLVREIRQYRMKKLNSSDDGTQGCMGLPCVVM

| SMILES | HRAS /KRAS [1] | IC50 [2] | NRAS /KRAS [3] |
| --- | --- | --- | --- |
| CCO[C@@H]1C[C@H]2C(=O)NC3(CCC3)C(=O)N(C)[C@@H](C3CCCC3)C(=O)N(C)[C@H](C(=O)N3CCOCC3)CC(=O)N(C)[C@@H](CC)C(=O)N[C@@H]([C@@H](C)CC)C(=O)N(C)CC(=O)N(C)[C@H]3C/C=C\CCN(C3=O)[C@@H](Cc3ccc(C(F)(F)F)cc3)C(=O)N(C)CC(=O)N[C@@H](CCc3cc(F)c(C(F)(F)F)c(F)c3)C(=O)N2C1 [PP1092] | A (a compound having 10 or more and less than 20 is denoted as A) | 15.8 nM | A (a compound having 10 or more and less than 20 is denoted as A) |
| CCO[C@@H]1C[C@H]2C(=O)NC3(CCC3)C(=O)N(C)[C@@H](C3CCCC3)C(=O)N[C@H](C(=O)N(C)C)CC(=O)N(C)[C@@H](CC)C(=O)N[C@@H]([C@@H](C)CC)C(=O)N(C)CC(=O)N(C)[C@H]3C/C=C\CCN(C3=O)[C@@H](Cc3ccc(C(F)(F)F)cc3)C(=O)N(C)CC(=O)N[C@@H](CCc3cc(F)c(C(F)(F)F)c(F)c3)C(=O)N2C1 [PP1094] | B (a compound having 3 or more and less than 10 is denoted as B) | 778 nM | A (a compound having 10 or more and less than 20 is denoted as A) |
| CCO[C@@H]1C[C@H]2C(=O)NC3(CCC3)C(=O)N(C)[C@@H](C3CCCC3)C(=O)N(C)[C@H](C)CC(=O)N(C)[C@@H](CC)C(=O)N[C@@H]([C@@H](C)CC)C(=O)N(C)CC(=O)N(C)[C@H]3C/C=C\CCN(C3=O)[C@@H](Cc3ccc(C(F)(F)F)cc3)C(=O)N(C)CC(=O)N[C@@H](CCc3cc(F)c(C(F)(F)F)c(F)c3)C(=O)N2C1 [PP1095] | B (a compound having 3 or more and less than 10 is denoted as B) | 14.9 nM | B (a compound having 3 or more and less than 10 is denoted as B) |
| CCO[C@@H]1C[C@H]2C(=O)NC3(CCCC3)C(=O)N(C)[C@@H](C3CCCC3)C(=O)N(C)[C@H](C)CC(=O)N(C)[C@@H](CC(C)C)C(=O)N[C@@H]([C@@H](C)CC)C(=O)N(C)CC(=O)N(C)[C@H]3C/C=C\CCN(C3=O)[C@@H](Cc3ccc(C(F)(F)F)cc3)C(=O)N(C)CC(=O)N[C@@H](CCc3cc(F)c(C(F)(F)F)c(F)c3)C(=O)N2C1 [PP1096] | B (a compound having 3 or more and less than 10 is denoted as B) | 38.1 nM | B (a compound having 3 or more and less than 10 is denoted as B) |
| CCO[C@@H]1C[C@H]2C(=O)NC3(CCC3)C(=O)N(C)[C@@H](C3CCCC3)C(=O)N3CCC[C@@H]3CC(=O)N(C)[C@@H](CC)C(=O)N[C@@H]([C@@H](C)CC)C(=O)N(C)CC(=O)N(C)[C@H]3C/C=C\CCN(C3=O)[C@@H](Cc3ccc(C(F)(F)F)cc3)C(=O)N(C)CC(=O)N[C@@H](CCc3cc(F)c(C(F)(F)F)c(F)c3)C(=O)N2C1 [PP1097] | B (a compound having 3 or more and less than 10 is denoted as B) | 10.2 nM | B (a compound having 3 or more and less than 10 is denoted as B) |
| CCO[C@@H]1C[C@H]2C(=O)NC3(CCC3)C(=O)N(C)[C@@H](C3CCCC3)C(=O)N[C@H](C)CC(=O)N(C)[C@@H](CC)C(=O)N[C@@H]([C@@H](C)CC)C(=O)N(C)CC(=O)N(C)[C@H]3C/C=C\CCN(C3=O)[C@@H](Cc3ccc(C(F)(F)F)cc3)C(=O)N(C)CC(=O)N[C@@H](CCc3cc(F)c(C(F)(F)F)c(F)c3)C(=O)N2C1 [PP1098] | B (a compound having 3 or more and less than 10 is denoted as B) | 101 nM | B (a compound having 3 or more and less than 10 is denoted as B) |
| CC[C@H](C)[C@@H]1NC(=O)[C@H](CC)N(C)C(=O)C[C@@H](C)N(C)C(=O)[C@H](C2CCCC2)N(C)C(=O)C2(CCCC2)NC(=O)[C@@H]2CCCN2C(=O)[C@H](CCc2cc(F)c(C(F)(F)F)c(F)c2)NC(=O)CN(C)C(=O)[C@H](Cc2ccc(C(F)(F)F)cc2)N2CC/C=C\C[C@@H](C2=O)N(C)C(=O)CN(C)C1=O [PP1101] | B (a compound having 3 or more and less than 10 is denoted as B) | 68.4 nM | B (a compound having 3 or more and less than 10 is denoted as B) |
| CC[C@H](C)[C@@H]1NC(=O)[C@H](CC(C)C)N(C)C(=O)C[C@@H](C)N(C)C(=O)[C@H](C2CCCC2)N(C)C(=O)C2(CCCC2)NC(=O)[C@@H]2CCCN2C(=O)[C@H](CCc2cc(F)c(C(F)(F)F)c(F)c2)NC(=O)CN(C)C(=O)[C@H](Cc2ccc(C(F)(F)F)cc2)N2CC/C=C\C[C@@H](C2=O)N(C)C(=O)CN(C)C1=O [PP1102] | A (a compound having 10 or more and less than 20 is denoted as A) | 83.1 nM | B (a compound having 3 or more and less than 10 is denoted as B) |
| CC[C@H](C)[C@@H]1NC(=O)[C@H](C)N(C)C(=O)C[C@@H](C(=O)N(C)C)N(C)C(=O)[C@H](C2CCCC2)N(C)C(=O)C2(CCC2)NC(=O)[C@@H]2CC(F)(F)CN2C(=O)[C@H](CCc2cc(F)c(C(F)(F)F)c(F)c2)NC(=O)CN(C)C(=O)[C@H](Cc2ccc(C(F)(F)F)cc2)N2CC/C=C\C[C@@H](C2=O)N(C)C(=O)CN(C)C1=O [PP1103] | B (a compound having 3 or more and less than 10 is denoted as B) | 34.8 nM | A (a compound having 10 or more and less than 20 is denoted as A) |
| CCO[C@@H]1C[C@H]2C(=O)NC3(CCCC3)C(=O)N(C)[C@@H](C3CCCC3)C(=O)N(C)[C@H](C(=O)N(C)C)CC(=O)N(C)[C@@H](C)C(=O)N[C@@H]([C@@H](C)CC)C(=O)N(C)CC(=O)N(C)[C@H]3C/C=C\CCN(C3=O)[C@@H](Cc3ccc(C(F)(F)F)cc3)C(=O)N(C)CC(=O)N[C@@H](CCc3cc(F)c(C(F)(F)F)c(F)c3)C(=O)N2C1 [PP1104] | A (a compound having 10 or more and less than 20 is denoted as A) | 44.6 nM | A (a compound having 10 or more and less than 20 is denoted as A) |
| CC[C@H](C)[C@@H]1NC(=O)[C@H](CC)N(C)C(=O)C[C@@H](C(=O)N(C)C)N(CC)C(=O)[C@H](C2CCCC2)N(C)C(=O)C2(CCC2)NC(=O)[C@@H]2CCCN2C(=O)[C@H](CCc2cc(F)c(C(F)(F)F)c(F)c2)NC(=O)CN(C)C(=O)[C@H](Cc2ccc(C(F)(F)F)cc2)N2CC/C=C\C[C@@H](C2=O)N(C)C(=O)CN(C)C1=O [PP1106] | A (a compound having 10 or more and less than 20 is denoted as A) | 155 nM | A (a compound having 10 or more and less than 20 is denoted as A) |
| CCO[C@@H]1C[C@H]2C(=O)NC3(CCC3)C(=O)N(C)[C@@H](C3CCCC3)C(=O)N(C)[C@H](C(=O)N(C)C)CC(=O)N(C)[C@@H](CC(C)C)C(=O)N[C@@H]([C@@H](C)CC)C(=O)N(C)CC(=O)N(C)[C@H]3C/C=C\CCN(C3=O)[C@@H](Cc3ccc(C(F)(F)F)cc3)C(=O)N(C)CC(=O)N[C@@H](CCc3cc(F)c(C(F)(F)F)c(F)c3)C(=O)N2C1 [PP1107] | A (a compound having 10 or more and less than 20 is denoted as A) | 5.4 nM | A (a compound having 10 or more and less than 20 is denoted as A) |
| CCO[C@@H]1C[C@H]2C(=O)NC3(CCC3)C(=O)N(C)[C@@H](C3CCCC3)C(=O)N(C)[C@H](C(=O)N(C)C)CC(=O)N(C)[C@@H](C)C(=O)N[C@@H]([C@@H](C)CC)C(=O)N(C)CC(=O)N(C)[C@H]3C/C=C\CCN(C3=O)[C@@H](Cc3ccc(C(F)(F)F)cc3)C(=O)N(C)CC(=O)N[C@@H](CCc3cc(F)c(C(F)(F)F)c(F)c3)C(=O)N2C1 [PP1108] | A (a compound having 10 or more and less than 20 is denoted as A) | 28.3 nM | A (a compound having 10 or more and less than 20 is denoted as A) |
| CCO[C@@H]1C[C@H]2C(=O)NC3(CCC3)C(=O)N(C)[C@@H](C3CCCC3)C(=O)N(C)[C@H](C(=O)N(C)C)CC(=O)N(C)[C@@H](C(C)C)C(=O)N[C@@H]([C@@H](C)CC)C(=O)N(C)CC(=O)N(C)[C@H]3C/C=C\CCN(C3=O)[C@@H](Cc3ccc(C(F)(F)F)cc3)C(=O)N(C)CC(=O)N[C@@H](CCc3cc(F)c(C(F)(F)F)c(F)c3)C(=O)N2C1 [PP1109] | B (a compound having 3 or more and less than 10 is denoted as B) | 17 nM | A (a compound having 10 or more and less than 20 is denoted as A) |
| CCC[C@H]1C(=O)N[C@@H]([C@@H](C)CC)C(=O)N(C)CC(=O)N(C)[C@H]2C/C=C\CCN(C2=O)[C@@H](Cc2ccc(C(F)(F)F)cc2)C(=O)N(C)CC(=O)N[C@@H](CCc2cc(F)c(C(F)(F)F)c(F)c2)C(=O)N2C[C@H](OCC)C[C@H]2C(=O)NC2(CCC2)C(=O)N(C)[C@@H](C2CCCC2)C(=O)N(C)[C@H](C(=O)N(C)C)CC(=O)N1C [PP1110] | B (a compound having 3 or more and less than 10 is denoted as B) | 11.2 nM | A (a compound having 10 or more and less than 20 is denoted as A) |
| CCO[C@@H]1C[C@H]2C(=O)NC3(CCC3)C(=O)N(C)[C@@H](C3CCCC3)C(=O)N(C)[C@H](C(=O)N(C)C)CC(=O)N(C)[C@@H](CC3CC3)C(=O)N[C@@H]([C@@H](C)CC)C(=O)N(C)CC(=O)N(C)[C@H]3C/C=C\CCN(C3=O)[C@@H](Cc3ccc(C(F)(F)F)cc3)C(=O)N(C)CC(=O)N[C@@H](CCc3cc(F)c(C(F)(F)F)c(F)c3)C(=O)N2C1 [PP1111] | A (a compound having 10 or more and less than 20 is denoted as A) | 13 nM | A (a compound having 10 or more and less than 20 is denoted as A) |
| CCO[C@@H]1C[C@H]2C(=O)NC3(CCC3)C(=O)N(C)[C@@H](C3CCCC3)C(=O)N(C)[C@H](C(=O)N(C)C)CC(=O)N(C)[C@@H](COC)C(=O)N[C@@H]([C@@H](C)CC)C(=O)N(C)CC(=O)N(C)[C@H]3C/C=C\CCN(C3=O)[C@@H](Cc3ccc(C(F)(F)F)cc3)C(=O)N(C)CC(=O)N[C@@H](CCc3cc(F)c(C(F)(F)F)c(F)c3)C(=O)N2C1 [PP1113] | A (a compound having 10 or more and less than 20 is denoted as A) | 21.4 nM | A (a compound having 10 or more and less than 20 is denoted as A) |
